The text below walks through data of patent EP2891491A1, “Use of (r)-phenylpiracetam for the treatment of sleep disorders” (Merz Pharma GmbH & Co. KGaA, priority 2014, dated 2015).

For series [1] the following is noted: humans, administered orally; cited from earlier work.
A further series deals with subjects with PD and EDS. Conditions: 200 to 400 mg/day vs placebo, 40 subjects with PD and EDS; cited from earlier work.
The next series relates to rats. In words: motivation tests: progressive ratio task, cost-benefit choice test, consumption test. The format is in vivo. As to the method:
EXAMPLE 6: Effect of (R)-phenylpiracetam in motivation tests - Figs. 5, 6, 7, 8
Methylphenidate purchased from Sigma (Taufkirchen, Germany) was dissolved in distilled water fresh for each test day. D-Amphetamine purchased from Sigma (Taufkirchen, Germany) was dissolved in 0.9% sterile NaCl solution fresh for each test day. (R)-Phenylpiracetam was dissolved in distilled water fresh for each test day.
One hundred and three male Sprague-Dawley rats (Janvier, Le Genest-St-Isle, France) weighing 225-250 g on arrival were used.
The animals were kept under standard laboratory conditions in groups of up to 4 per care with ad libitum access to water. Standard diet for rodents (Altromin) was available to the animals at 15 g per animal/day
For each test described below, two independent experiments were performed using an identical protocol. After continuous reinforcement training (CRF) training (see below) all animals were assigned to treatment groups, such that performance across all the groups was similar. The treatment groups were evenly distributed throughout the caging system.
In experiment 1 and 2 the following protocols were used:
Overview: Three tests were performed in a consecutive manner on subsequent days. On day 1-2, animals were habituated individually to Skinner boxes in two sessions, one per day, for 30 min. Animals received "free" food pellets at a random time (one pellet per minute on average). On days 3-8 animals were trained in Skinner boxes on a continuous reinforcement schedule (one pellet per lever press). On days 9-10 they were tested in the progressive ratio test (Test 1) off-drug, on days 11-12 on-drug. On day 13, a choice test (Test 2) was performed on-drug, on day 14, a consumption test (Test 3) was performed on-drug. Below, tests are described in detail.
Behavioral testing was conducted in 12 operant test chambers (Med Associates, St. Albans, USA). Each chamber was equipped with a retractable lever, a food dispenser with receptacle, an overhead house light and two stimulus lights, one above the lever and the other above the food receptacle. An infrared photocell beam detected nose pokes into the food receptacle. The apparatus was controlled by a computer system (SmartControl®-Interface and MedPC-software, Med Associates, St. Albans, USA). The light above the food receptacle indicated the delivery of a food pellet in the receptacle. Rats were first habituated to the operant boxes for two sessions (30 min each) on two consecutive days. Thereafter, animals were trained for six sessions on the CRF schedule for 30 min. Followed by 4 sessions (two session off-drug followed by two sessions on-drug) of an increasing fixed ratio (FR) schedule in steps of 5, with 3 repetitions of each step (i.e. 1-1-1; 5-5-5; 10-10-10; ...). When the required FR value of each trial was achieved the light above the food receptacle indicated the delivery of a single food pellet (45 mg, Bioserve, USA). The light remained on until the rat poked its nose in the receptacle. Lever presses while the light was on were counted as perseverative lever presses; they were counted but had no programmed consequences. […] For each session, the value of the last completed ratio (breaking point) was recorded as well as the amount of received rewards, the perseverative lever presses, the duration of the session and the latency to respond. Animals of all treatment groups received respective vehicle/drug infusions 30 min pre-test on the final two sessions involving testing under a PR schedule.
In this task the rats had the choice between working for their preferred food (Bioserve pellets) by pressing the lever on a PR schedule as described above or obtaining lab chow being freely available in a dish (about 15 g) within the operant chamber. The food receptacle and the lever were positioned on the same wall of the operant chamber, the dish containing the lab chow was situated in a corner on the opposite side of the operant chamber. […]

The conditions of series [2]: just slightly stronger with (R)- than with (S)-phenylpiracetam; cited from earlier work.

As a reminder, the half-life is the time in which the quantity being followed falls by half. As to `NC(=O)CN1CC(c2ccccc2)CC1=O` (racemic) [phenylpiracetam, 2-(4-phenyl-2-oxopyrrolidin-1-yl)acetamide], the half-life in series [1] is 3 to 5 h.

Consider `NC(=O)C[S+]([O-])C(c1ccccc1)c1ccccc1` (stereo not drawn) [modafinil], for which the “Epworth sleepiness score (primary outcome measure) and secondary outcome measures” value in the series on subjects with PD and EDS is given as “no benefit”.

As to `NC(=O)CN1C[C@H](c2ccccc2)CC1=O` [(S)-phenylpiracetam, reference compound], the effect on motivation result in the series with rats (100 mg/kg) is given as “only a very weak effect”; with rats (200 mg/kg), “no significant effect”. In the series with rats (100 mg/kg, times lower than (R)-phenylpiracetam), the “effect on motivation relative to (R)-phenylpiracetam” value was found to be 2.5 times. Also, the “locomotor activity in the open-field test” value in series [2] was “significant increase”.
